# Experiments:
# [1] = system: Echinochloa oryzoides (Ard.) Fritsch.; test: Preemergence weed control under flooded paddy conditions, ECHORC (Watergrass (Calif.)); type: in vivo; settings: preemergence, flooded paddy, rated three to four weeks after treatment; further: meaning of each grade not given here
# Cyperus iria [2] = test: Preemergence weed control under flooded paddy conditions, CYPIR (Rice Flatsedge); type: in vivo; settings: preemergence, flooded paddy, rated three to four weeks after treatment; further: meaning of each grade not given here
# [3] = system: Cyperus serotinus, Rottb.; test: Preemergence weed control under flooded paddy conditions, CYPSE (Flatsedge); type: in vivo; settings: preemergence, rated three to four weeks after treatment; further: meaning of each grade not given here
# [4] = system: Monochoria vaginalis, Presl.; test: Preemergence weed control under flooded paddy conditions, MOOVA (Monochoria); type: in vivo; settings: preemergence, flooded paddy, rated three to four weeks after treatment; further: meaning of each grade not given here
# Sagittaria pygmaea, L. [5] = test: Preemergence weed control under flooded paddy conditions, SAGPY (Arrowhead (Pygmaea)); type: in vivo; settings: preemergence, flooded paddy, rated three to four weeks after treatment; further: meaning of each grade not given here
# [6] = system: Echinochloa oryzoides (Ard.) Fritsch.; test: Postemergence weed control under flooded paddy conditions, ECHORC (Watergrass (Calif.)); type: in vivo; settings: rated three to four weeks after treatment
# Cyperus iria [7] = test: Postemergence weed control under flooded paddy conditions, CYPIR (Rice Flatsedge); type: in vivo; settings: rated three to four weeks after treatment
# [8] = system: Cyperus serotinus, Rottb.; test: Postemergence weed control under flooded paddy conditions, CYPSE (Flatsedge); type: in vivo; settings: rated three to four weeks after treatment
# [9] = system: Monochoria vaginalis, Presl.; test: Postemergence weed control under flooded paddy conditions, MOOVA (Monochoria); type: in vivo; settings: rated three to four weeks after treatment
# Sagittaria pygmaea, L. [10] = test: Postemergence weed control under flooded paddy conditions, SAGPY (Arrowhead (Pygmaea)); type: in vivo; settings: rated three to four weeks after treatment
# [11] = system: Oryza sativa, (L.) Tebonnet; test: Rice tolerance to post-transplant applications under flooded paddy conditions (Example 187), ORYSAT (Rice, Tebonnet); settings: rated three to four weeks after treatment
# [12] = system: Oryza sativa, (L.) Tebonnet; test: Rice tolerance to post-transplant applications under flooded paddy conditions (Example 188), ORYSAT (Rice, Tebonnet); settings: rated three to four weeks after treatment
compound,measurement,setting,value
"Cc1nsc2ccc(-n3c(=O)cc(C(F)(F)F)n(C)c3=O)cc12 [Example 6, 1-Methyl-3-(3-methyl-1,2-benzisothiazol-5-yl)-6-(trifluoromethyl)-2,4(1H,3H)-pyrimidinedione]","herbicidal effect rating, ECHORC",[1]; 0.0625 kg/ha,6.0
same,"herbicidal effect rating, ECHORC",[1]; 0.1250 kg/ha,8.0
same,"herbicidal effect rating, ECHORC",[1]; 0.2500 kg/ha,9.0
same,"herbicidal effect rating, ECHORC",[1]; 0.5000 kg/ha,9.0
same,"herbicidal effect rating, CYPIR",Cyperus iria [2]; 0.0625 kg/ha,9.0
same,"herbicidal effect rating, CYPIR",Cyperus iria [2]; 0.1250 kg/ha,9.0
same,"herbicidal effect rating, CYPIR",Cyperus iria [2]; 0.2500 kg/ha,9.0
same,"herbicidal effect rating, CYPIR",Cyperus iria [2]; 0.5000 kg/ha,9.0
same,"herbicidal effect rating, CYPSE",[3]; 0.0625 kg/ha,4.0
same,"herbicidal effect rating, CYPSE",[3]; 0.1250 kg/ha,7.0
same,"herbicidal effect rating, CYPSE",[3]; 0.2500 kg/ha,9.0
same,"herbicidal effect rating, CYPSE",[3]; 0.5000 kg/ha,9.0
same,"herbicidal effect rating, MOOVA",[4]; 0.0625 kg/ha,9.0
same,"herbicidal effect rating, MOOVA",[4]; 0.1250 kg/ha,9.0
same,"herbicidal effect rating, MOOVA",[4]; 0.2500 kg/ha,9.0
same,"herbicidal effect rating, MOOVA",[4]; 0.5000 kg/ha,9.0
same,"herbicidal effect rating, SAGPY","Sagittaria pygmaea, L. [5]; 0.0625 kg/ha",4.0
same,"herbicidal effect rating, SAGPY","Sagittaria pygmaea, L. [5]; 0.1250 kg/ha",7.0
same,"herbicidal effect rating, SAGPY","Sagittaria pygmaea, L. [5]; 0.2500 kg/ha",7.0
same,"herbicidal effect rating, SAGPY","Sagittaria pygmaea, L. [5]; 0.5000 kg/ha",9.0
same,"herbicidal effect rating, ECHORC",[6]; Rate 0.0313 kg/ha,4.0
same,"herbicidal effect rating, ECHORC",[6]; Rate 0.0625 kg/ha,7.0
same,"herbicidal effect rating, ECHORC",[6]; Rate 0.1250 kg/ha,9.0
same,"herbicidal effect rating, ECHORC",[6]; Rate 0.2500 kg/ha,9.0
same,"herbicidal effect rating, ECHORC",[6]; Rate 0.5000 kg/ha,9.0
same,"herbicidal effect rating, CYPIR",Cyperus iria [7]; Rate 0.0313 kg/ha,9.0
same,"herbicidal effect rating, CYPIR",Cyperus iria [7]; Rate 0.0625 kg/ha,9.0
same,"herbicidal effect rating, CYPIR",Cyperus iria [7]; Rate 0.1250 kg/ha,9.0
same,"herbicidal effect rating, CYPIR",Cyperus iria [7]; Rate 0.2500 kg/ha,9.0
same,"herbicidal effect rating, CYPIR",Cyperus iria [7]; Rate 0.5000 kg/ha,9.0
same,"herbicidal effect rating, CYPSE",[8]; Rate 0.0313 kg/ha,0.0
same,"herbicidal effect rating, CYPSE",[8]; Rate 0.0625 kg/ha,2.0
same,"herbicidal effect rating, CYPSE",[8]; Rate 0.1250 kg/ha,7.0
same,"herbicidal effect rating, CYPSE",[8]; Rate 0.2500 kg/ha,7.0
same,"herbicidal effect rating, CYPSE",[8]; Rate 0.5000 kg/ha,9.0
same,"herbicidal effect rating, MOOVA",[9]; Rate 0.0313 kg/ha,9.0
same,"herbicidal effect rating, MOOVA",[9]; Rate 0.0625 kg/ha,9.0
same,"herbicidal effect rating, MOOVA",[9]; Rate 0.1250 kg/ha,9.0
same,"herbicidal effect rating, MOOVA",[9]; Rate 0.2500 kg/ha,9.0
same,"herbicidal effect rating, MOOVA",[9]; Rate 0.5000 kg/ha,9.0
same,"herbicidal effect rating, SAGPY","Sagittaria pygmaea, L. [10]; Rate 0.0313 kg/ha",2.0
same,"herbicidal effect rating, SAGPY","Sagittaria pygmaea, L. [10]; Rate 0.0625 kg/ha",4.0
same,"herbicidal effect rating, SAGPY","Sagittaria pygmaea, L. [10]; Rate 0.1250 kg/ha",6.0
same,"herbicidal effect rating, SAGPY","Sagittaria pygmaea, L. [10]; Rate 0.2500 kg/ha",8.0
same,"herbicidal effect rating, SAGPY","Sagittaria pygmaea, L. [10]; Rate 0.5000 kg/ha",9.0
same,"herbicidal effect rating, ORYSAT (rice tolerance)",[11]; 0.0625 kg/ha,8.0
same,"herbicidal effect rating, ORYSAT (rice tolerance)",[11]; 0.1250 kg/ha,8.0
same,"herbicidal effect rating, ORYSAT (rice tolerance)",[11]; 0.2500 kg/ha,8.0
same,"herbicidal effect rating, ORYSAT (rice tolerance)",[11]; 0.5000 kg/ha,8.0
same,"herbicidal effect rating, ORYSAT (rice tolerance)",[12]; Rate 0.0313 kg/ha,4.0
same,"herbicidal effect rating, ORYSAT (rice tolerance)",[12]; Rate 0.0625 kg/ha,4.0
same,"herbicidal effect rating, ORYSAT (rice tolerance)",[12]; Rate 0.1250 kg/ha,9.0
same,"herbicidal effect rating, ORYSAT (rice tolerance)",[12]; Rate 0.2500 kg/ha,9.0
same,"herbicidal effect rating, ORYSAT (rice tolerance)",[12]; Rate 0.5000 kg/ha,9.0
"COc1ccc(C)cc1-c1nsc2ccc(-n3c(=O)cc(C(F)(F)F)n(C)c3=O)cc12 [Example 1, 3-[3-(6-Methoxy-m-tolyl)-1,2-benzisothiazol-5-yl]-1-methyl-6-(trifluoromethyl)-2,4(1H,3H)-pyrimidinedione]","herbicidal effect rating, ECHORC",[1]; 0.0313 kg/ha,9.0
same,"herbicidal effect rating, ECHORC",[1]; 0.0625 kg/ha,9.0
same,"herbicidal effect rating, ECHORC",[1]; 0.1250 kg/ha,9.0
same,"herbicidal effect rating, ECHORC",[1]; 0.2500 kg/ha,9.0
same,"herbicidal effect rating, ECHORC",[1]; 0.5000 kg/ha,9.0
same,"herbicidal effect rating, CYPIR",Cyperus iria [2]; 0.0313 kg/ha,9.0
same,"herbicidal effect rating, CYPIR",Cyperus iria [2]; 0.0625 kg/ha,9.0
same,"herbicidal effect rating, CYPIR",Cyperus iria [2]; 0.1250 kg/ha,9.0
same,"herbicidal effect rating, CYPIR",Cyperus iria [2]; 0.2500 kg/ha,9.0
same,"herbicidal effect rating, CYPIR",Cyperus iria [2]; 0.5000 kg/ha,9.0
same,"herbicidal effect rating, CYPSE",[3]; 0.0313 kg/ha,1.3
same,"herbicidal effect rating, CYPSE",[3]; 0.0625 kg/ha,3.0
same,"herbicidal effect rating, CYPSE",[3]; 0.1250 kg/ha,6.0
same,"herbicidal effect rating, CYPSE",[3]; 0.2500 kg/ha,9.0
same,"herbicidal effect rating, CYPSE",[3]; 0.5000 kg/ha,8.0
same,"herbicidal effect rating, MOOVA",[4]; 0.0313 kg/ha,9.0
same,"herbicidal effect rating, MOOVA",[4]; 0.0625 kg/ha,9.0
same,"herbicidal effect rating, MOOVA",[4]; 0.1250 kg/ha,9.0
same,"herbicidal effect rating, MOOVA",[4]; 0.2500 kg/ha,9.0
same,"herbicidal effect rating, MOOVA",[4]; 0.5000 kg/ha,9.0
same,"herbicidal effect rating, SAGPY","Sagittaria pygmaea, L. [5]; 0.0313 kg/ha",3.3
same,"herbicidal effect rating, SAGPY","Sagittaria pygmaea, L. [5]; 0.0625 kg/ha",5.0
same,"herbicidal effect rating, SAGPY","Sagittaria pygmaea, L. [5]; 0.1250 kg/ha",6.7
same,"herbicidal effect rating, SAGPY","Sagittaria pygmaea, L. [5]; 0.2500 kg/ha",8.3
same,"herbicidal effect rating, SAGPY","Sagittaria pygmaea, L. [5]; 0.5000 kg/ha",8.5
same,"herbicidal effect rating, ECHORC",[6]; Rate 0.0313 kg/ha,1.0
same,"herbicidal effect rating, ECHORC",[6]; Rate 0.0625 kg/ha,2.5
same,"herbicidal effect rating, ECHORC",[6]; Rate 0.1250 kg/ha,6.5
same,"herbicidal effect rating, ECHORC",[6]; Rate 0.2500 kg/ha,8.0
same,"herbicidal effect rating, ECHORC",[6]; Rate 0.5000 kg/ha,9.0
same,"herbicidal effect rating, CYPIR",Cyperus iria [7]; Rate 0.0313 kg/ha,0.0
same,"herbicidal effect rating, CYPIR",Cyperus iria [7]; Rate 0.0625 kg/ha,4.0
same,"herbicidal effect rating, CYPIR",Cyperus iria [7]; Rate 0.1250 kg/ha,9.0
same,"herbicidal effect rating, CYPIR",Cyperus iria [7]; Rate 0.2500 kg/ha,9.0
same,"herbicidal effect rating, CYPIR",Cyperus iria [7]; Rate 0.5000 kg/ha,9.0
same,"herbicidal effect rating, CYPSE",[8]; Rate 0.0313 kg/ha,1.0
same,"herbicidal effect rating, CYPSE",[8]; Rate 0.0625 kg/ha,1.0
same,"herbicidal effect rating, CYPSE",[8]; Rate 0.1250 kg/ha,3.0
same,"herbicidal effect rating, CYPSE",[8]; Rate 0.2500 kg/ha,5.5
same,"herbicidal effect rating, CYPSE",[8]; Rate 0.5000 kg/ha,6.5
same,"herbicidal effect rating, MOOVA",[9]; Rate 0.0313 kg/ha,0.0
same,"herbicidal effect rating, MOOVA",[9]; Rate 0.0625 kg/ha,1.0
same,"herbicidal effect rating, MOOVA",[9]; Rate 0.1250 kg/ha,4.5
same,"herbicidal effect rating, MOOVA",[9]; Rate 0.2500 kg/ha,5.5
same,"herbicidal effect rating, MOOVA",[9]; Rate 0.5000 kg/ha,6.5
same,"herbicidal effect rating, SAGPY","Sagittaria pygmaea, L. [10]; Rate 0.0313 kg/ha",0.0
same,"herbicidal effect rating, SAGPY","Sagittaria pygmaea, L. [10]; Rate 0.0625 kg/ha",0.0
same,"herbicidal effect rating, SAGPY","Sagittaria pygmaea, L. [10]; Rate 0.1250 kg/ha",0.0
same,"herbicidal effect rating, SAGPY","Sagittaria pygmaea, L. [10]; Rate 0.2500 kg/ha",1.0
same,"herbicidal effect rating, SAGPY","Sagittaria pygmaea, L. [10]; Rate 0.5000 kg/ha",3.0
same,"herbicidal effect rating, ORYSAT (rice tolerance)",[11]; 0.0313 kg/ha,4.7
same,"herbicidal effect rating, ORYSAT (rice tolerance)",[11]; 0.0625 kg/ha,4.7
same,"herbicidal effect rating, ORYSAT (rice tolerance)",[11]; 0.1250 kg/ha,5.3
same,"herbicidal effect rating, ORYSAT (rice tolerance)",[11]; 0.2500 kg/ha,7.7
same,"herbicidal effect rating, ORYSAT (rice tolerance)",[11]; 0.5000 kg/ha,7.0
same,"herbicidal effect rating, ORYSAT (rice tolerance)",[12]; Rate 0.0313 kg/ha,3.0
same,"herbicidal effect rating, ORYSAT (rice tolerance)",[12]; Rate 0.0625 kg/ha,3.0
same,"herbicidal effect rating, ORYSAT (rice tolerance)",[12]; Rate 0.1250 kg/ha,4.0
same,"herbicidal effect rating, ORYSAT (rice tolerance)",[12]; Rate 0.2500 kg/ha,6.0
same,"herbicidal effect rating, ORYSAT (rice tolerance)",[12]; Rate 0.5000 kg/ha,7.0

# From patent EP0908457B1, “3-(1,2-benzisothiazol- and isoxazol-5-Y1)-2,4(1H,3H)-pyrimidinedione or thione and 3-(1,2-benzisothiazol- and isoxazol-5-y1)-4(3H)-pyrimidinone or thione herbicidal agents” (BASF AKTIENGESELLSCHAFT, priority 1997, dated 1999)
